Test: gradient 5% acetonitrile 3 min, to 50% in 2 min, to 85% in 15 min, held 3 min, 100 µL/min
Conditions: column: Zorbax Extend-C18 2.1 x 50 mm; eluents: water / acetonitrile, 0.1% formic acid
Procedure, shortened: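 Pure standards were analyzed in mixtures of ~100 molecules using HPLC coupled to a quadrupole time-of-flight mass spectrometer, in both positive and negative ionization mode. Separation used a Zorbax Extend-C18 column (2.1 × 50 mm, 1.8 μm) at 100 μL/min, with water and acetonitrile each containing 0.1% formic acid. Dead and dwell volumes were 40 μL and 900 μL, and data were collected over 3 months. Retention time was read from computationally picked adduct peaks, each inspected manually.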

SMILES | RP-LC retention time [s]
Cc1[nH]c2ccccc2c1C(=O)C(=O)Nc1ccc2c(c1)OCO2 | 782
CC(C)n1c(=O)c2ccccc2n(Cc2nc(-c3ccc(F)cc3)no2)c1=O | 1110
O=C(Oc1ccccc1)N1CCC(CNS(=O)(=O)c2ccc(F)c(Cl)c2)CC1 | 951
CC(C)NC(=O)Cc1cccn1-c1cccc(Cl)c1 | 870
O=c1cc(Cn2nc3c(-c4nc(-c5ccccc5)no4)cccn3c2=O)nc2ccccn12 | 740
COc1ccc2[nH]cc(CCNC(=O)c3c(-c4ccccn4)noc3C)c2c1 | 846
CCCn1ncc(N2CCC(C(=O)N3CCN(C(C)=O)CC3)CC2)cc1=O | 591
Cc1ccc(C)c(-c2csc(Nc3ccccn3)n2)c1 | 821
COc1ccc(OC)c(CNC(=O)c2cn3ccc(C)cc3n2)c1 | 541
CCc1nc2ccccc2c(=O)n1Cc1noc(-c2cccc(OC)c2OC)n1 | 872
CN(C)c1ccc2c(c1)CN(C(=O)C1CCC1)CCO2 | 590
COc1ccc(S(=O)(=O)CCc2nc(-c3cccc(-c4ccnn4C)c3)no2)cc1 | 866
CN(C)C(=O)c1ccc2c(c1)nc(CN(C)C(=O)Nc1ccc(Cl)cc1)n2C | 616
CCc1noc(NC(C)=O)c1-c1ccc(OC)c(S(=O)(=O)NCc2cccc(OC)c2)c1 | 786
Cc1ccccc1CNC(=O)C1(C)CCN(S(=O)(=O)c2ccc(Br)s2)CC1 | 1050
Cc1ccc2c(c1)c1nc3ccccc3nc1n2CC(=O)O | 721
O=[N+]([O-])c1c(NCCCO)cc(NCc2ccc3c(c2)OCO3)c2nonc12 | 668
CC(C)CC(=O)Nc1nnc(SCc2nnc(-c3ccc4c(c3)OCO4)o2)s1 | 854
CC(C)(C)c1ccc(S(=O)(=O)N2CCCCC2C(=O)N2CCN(c3ccccc3F)CC2)cc1 (centres undefined) | 1280
CC1(C(=O)NCc2ccccc2)CCCN(C(=O)NCc2ccc(F)cc2)C1 (centres undefined) | 831
Cc1ccc(-c2cc3c(=O)n(Cc4noc(CN5CCN(C(C)C)CC5)n4)ccn3n2)cc1 | 665
O=C(NCCc1csc(-c2cccs2)n1)C1CCN(C(=O)C2CCCCC2)CC1 | 817
O=C(CSc1nc2ccccc2[nH]c1=O)Nc1ccccc1 | 699

SMILES | RP-LC retention time [s]
O=C(NCCC1=CCCCC1)C1CCN(C(=O)C2Sc3ccccc3NC2=O)CC1 (centres undefined) | 802
CCOC(=O)Cn1c(=N)n(CCN2CCOCC2)c2ccccc21 | 548
COc1cccc(-c2nc(Cn3ccn4nc(-c5ccccc5)cc4c3=O)c(C)o2)c1OC | 1020
O=C(Nc1c(F)cccc1F)N1CC(c2nc(C3CC3)no2)C1 | 670
CCS(=O)(=O)N1CCCN(C2=NS(=O)(=O)C(c3ccccc3)=C2C)CC1 | 751
COc1ccc(N2CCN(c3cc(SCC(=O)Nc4cccc(OC)c4)ncn3)CC2)cc1 | 894
CNC(=O)C1CCCN(c2nc3ncn(CC(=O)NCc4cccc(OC)c4)c(=O)c3s2)C1 (centres undefined) | 621
O=C(Cn1cnc2sc3c(c2c1=O)CCCC3)Nc1cccc(Cl)c1 | 984
COc1cc(OC)cc(C(=O)Nc2cc(-c3cn4cccnc4n3)ccc2OC)c1 | 708
CSc1ccc(-c2noc(Cn3nc(-c4ccccc4Cl)ccc3=O)n2)cc1 | 1030
Cc1cc(C(=O)NCC(C)C)c2cccc(C)c2n1 | 697
O=C(NCC1CCCCC1)c1ccc(-c2nc3cccnc3n2C2CCCCC2)cc1 | 1130
CC1CCN(S(=O)(=O)c2ccc(-c3nnc(C(=O)N4CCCC4)o3)cc2)CC1 | 941
O=C(c1cccc(Br)c1)N1CCN(c2cc(-c3ccccc3)[nH]n2)CC1 | 852
CCCCC(=O)Nc1ccc2c(c1)nc(CN1CCN(C(=O)c3ccco3)CC1)n2C | 619
Cc1ccc(C(=O)COc2cc(O)c3c(=O)cc(-c4ccccc4)oc3c2)cc1 | 1210
CCCS(=O)(=O)N1CCC(N2C(=O)[C@H](OC)[C@@H]2c2ccncc2)CC1 | 700
Cc1ccc(-c2cc3c4nnc(SCC(=O)Nc5ccccc5F)n4ccn3n2)cc1C | 985
Cc1noc(-c2ccc(N3CCCC(C(=O)NC(C)c4ccco4)C3)nc2)n1 (centres undefined) | 746
Cc1ccc(NC(=O)C2(C)CCCCC(=O)N2)cc1 (centres undefined) | 696
CCN1C(=O)c2cccnc2Sc2cc(NC(=O)c3ccc(C(F)(F)F)cc3)ccc21 | 950
Clc1cccc(-c2noc(Cc3nc(-c4ccccc4)cs3)n2)c1 | 1280
CN(C)CCNC(=O)C1CCN(S(=O)(=O)c2ccc3c(c2)sc(=O)n3C)CC1 | 606

SMILES | RP-LC retention time [s]
Cc1ccccc1Nc1c(-c2cccc(O)c2)nc2cccc(C)n12 | 678
O=c1n(Cc2ccc3c(c2)OCO3)nc2c(S(=O)(=O)N3CCc4ccccc4C3)cccn12 | 922
COc1ccc(N2C(=O)C3(CCCCC3)C2C(=O)N(C)C)cc1 (centres undefined) | 750
CN1C(=O)c2[nH]nc(-c3ccccc3)c2C1c1cccnc1 (centres undefined) | 609
CCc1ccc(S(=O)(=O)N2CCCN(c3ccc(=O)n(-c4ccccc4)n3)CC2)cc1 | 904
NS(=O)(=O)c1ccc(NC(=O)NC2CC(=O)N(c3ccc(Cl)cc3)C2)cc1 (centres undefined) | 657
O=C(Cn1cccc1-c1nnc(C2CC2)o1)N1CCN(c2cccc(Cl)c2)CC1 | 944
COC(=O)c1ccc(CSc2nnc(N3CCN(c4ccccc4OC)CC3)s2)o1 | 894
Cn1cc(S(=O)(=O)N2CCC(C(=O)NC3CCCCCC3)CC2)cc1C(=O)N1CCCC1 | 770
COc1ccc(Cl)cc1NC(=O)Cn1ncc2c(c1=O)N(CC1CC1)C(=O)CS2 | 878
O=C(NCc1ccc(F)cc1F)c1csc(C(=O)NC2CCCC2)n1 | 895
Cc1oc2ncnc(N3CCCC(C(=O)NCc4cccnc4)C3)c2c1C (centres undefined) | 593
CCCCN(C(=O)C1CC1)C1CCS(=O)(=O)C1 (centres undefined) | 665
CCOc1ccc(-c2noc(Cn3c(=O)n(C(C)CC)c(=O)c4ccccc43)n2)cc1 (centres undefined) | 1170
Cc1cc2c(cc1NC(=O)c1ccco1)n(C)c(=O)n2C | 635
CCCn1c2ccccc2c2cnn(CC(=O)NCCN3CCCCC3C)c(=O)c21 (centres undefined) | 680
Cc1cccc2c(=O)c3c([nH]c12)CCN(CC(=O)NCc1ccccc1)C3 | 601
CCOc1ccc(NC(=O)c2cc(S(=O)(=O)N3CCC(C)CC3)cn2C)cc1 | 1070
Cc1ccccc1Cc1nc(-c2cccc(-c3ccnn3C)c2)no1 | 1110
Cn1cc(SCC(=O)N2CCCc3ccccc32)c2ccccc21 | 942
CC(=O)c1cccc(NC(=O)Cn2c(N3CCc4ccccc4C3)nc(C)cc2=O)c1 | 723
O=C(c1cccs1)N1CCN(c2cc(-c3ccccc3)[nH]n2)CC1 | 734
Cn1c(=O)c(N2CCC(NC(=O)Nc3ccccc3Cl)CC2)nc2cccnc21 | 904

SMILES | RP-LC retention time [s]
CC(=O)Nc1ccc2c(c1)nc(CN1CCOCC1)n2C(C)C | 579
CC1CCCN(c2ncc(S(=O)(=O)c3ccc(C(C)C)cc3)c(N)n2)C1 (centres undefined) | 807
COc1ccc2c(c1)OC1(C)CC2C(S(=O)(=O)c2ccc(C)c(C)c2)C(=O)N1 (centres undefined) | 934
O=C(c1ccsc1)N1CCC2(CC1)CC(N1CCOCC1)CCO2 (centres undefined) | 557
COc1ccc(-c2nn(Cc3ccccc3F)c(=O)c3nc(C)sc23)cc1OC | 808
CCOc1ccc(-n2nc(CO)c(C(=O)NC)n2)cc1 | 763
Cc1nncn1C1CCN(S(=O)(=O)c2ccc(CC(C)C)cc2)CC1 | 822
CCOCCCNCc1ccc(-c2ccc(F)cc2)o1 | 672
O=C([C@@H]1C[C@H](F)CN1C(=O)Nc1ccccc1Cl)N1CCCCC1 | 732
CN(C)C[C@@H]1CN(c2ncccn2)C[C@H]1NC(=O)c1ccc2ccccc2n1 | 595
Cc1ccc(C)n1-c1nnc(N2CCCC(C(=O)NCCc3c[nH]c4ccccc34)C2)s1 (centres undefined) | 950
O=S(=O)(c1ccc2nncn2c1)N(Cc1ccc(F)cc1)c1ccc(F)cc1 | 861
COc1ncc(C(=O)N2CCN(c3ccccc3F)CC2)cn1 | 770
CCc1nc(-c2csc(S(=O)(=O)N3CCC(C(=O)Nc4ccc(Cl)cc4F)CC3)c2)no1 | 1060
Cc1ccc(CNC(=O)C2CCN(c3cncnc3N3CCCCC3)CC2)o1 | 643
COc1ccccc1N1CCN(C(=O)Cn2ncc3c(c2=O)N(C)C(=O)CS3)CC1 | 661
Cc1cc(C)c(C)c(S(=O)(=O)Nc2ccc(C(=O)NCc3ccccn3)cc2)c1C | 630
CN1CCN(C(CNC(=O)c2ccc3c(c2)OCO3)c2ccc3c(c2)OCO3)CC1 (centres undefined) | 614
Clc1cccc(-c2ccc(CNCc3ccco3)o2)c1 | 837
COc1ccc(Cl)cc1S(=O)(=O)N1CCC(OC2CCN(C)CC2)CC1 | 791

Source: the METLIN SMRT retention time set (Domingo-Almenara et al. 2019)
